Test results taken from ChEMBL document CHEMBL3301361, “Experimental in vitro DMPK and physicochemical data on a set of publicly disclosed compounds”.
In brackets after ≈: the same amount, converted by molar mass.

Columns and labels:
[1] = in vitro; details: human, plasma, PPB
[2] = in vitro; details: hepatocytes
[3] = physchem; details: octan-1-ol/water, pH 7.4, LogD7.4
[4] = in vitro; details: human
[5] = in vitro; details: SD, HW or BN, rat, plasma
[6] = physchem; details: pH 7.4 buffer

| fraction unbound at 5 h [1] | hepatocyte CLint [2] | logD [3] | microsomal CLint ([4]; liver microsomes) | fraction unbound at 5 h [5] | microsomal CLint ([4]; microsomes) | solubility thermodynamic [6] | Structure (SMILES) |
| --- | --- | --- | --- | --- | --- | --- | --- |
| 0.201 | > 150 µL/min/1e6 cells | 0.9 | 20.4 µL/min/mg |  |  |  | CCOC(=O)c1cnc2c(N)cccc2c1O |
| 0.129 | 19.9 µL/min/1e6 cells | 1.4 | 21.4 µL/min/mg |  |  |  | CCOc1ccc(-n2c([C@@H](C)N(CC3CCN(C)CC3)C(=O)Cc3ccc(F)c(C(F)(F)F)c3)nc3ncccc3c2=O)cc1 |
|  | < 3 µL/min/1e6 cells |  |  | 0.166 | 5 µL/min/mg |  | O=C(c1ccccc1)N1CCC2(CCN(Cc3cccc(Cl)c3)CC2)CC1 |
|  | 10.2 µL/min/1e6 cells |  | 13.5 µL/min/mg | 0.46 |  |  | Cc1cccc(CN2CCC3(CC2)CCN(C(=O)c2ccccc2)CC3)c1 |
| 0.0784 | 26.3 µL/min/1e6 cells | 3.3 | 9.55 µL/min/mg |  |  |  | CCN(CC)CCNc1ncnc2c1sc1nc(N3CCOCC3)c3c(c12)CCCC3 |
| 0.0034 | > 150 µL/min/1e6 cells | 3.72 |  |  | 66.1 µL/min/mg |  | Cc1cc(CCCOc2c(Cl)cc(C3=NCCO3)cc2Cl)on1 |
| 0.266 | 64.6 µL/min/1e6 cells | 1.6 | 12.3 µL/min/mg |  |  |  | O=C(CSc1ccccc1)N1CCN(C(=O)c2ccco2)CC1 |
| 0.569 | 75.9 µL/min/1e6 cells | 1.4 |  |  | 5.25 µL/min/mg |  | O=S1(=O)CC(O)C(N2CCC(c3ccccc3)CC2)C1 (stereo not drawn) |
| 0.788 | < 3 µL/min/1e6 cells | 0.23 | < 3 µL/min/mg |  |  |  | Cc1cc(C)nc(SCC(N)=O)n1 |
| 0.0149 | > 150 µL/min/1e6 cells | 0.87 |  |  | 28.2 µL/min/mg |  | CC(=O)c1cc2ccc(O)cc2oc1=O |
| 0.002 | 66.1 µL/min/1e6 cells | 1.63 | 4.17 µL/min/mg |  |  |  | Cc1oc(-c2ccccc2)cc1C(=O)Nc1cccc(C(=O)O)c1 |
| 0.176 | 3.09 µL/min/1e6 cells | 1.4 |  |  | 3.98 µL/min/mg |  | COc1ccc(NC(=O)CCc2c(C)nc3nc(C)nn3c2C)cc1 |
| 0.0133 | 13.2 µL/min/1e6 cells | 1.47 | 15.8 µL/min/mg |  |  |  | C[C@H](NC(=O)c1cccc2c1N(Cc1ccc(Cl)cc1)CC2)c1ccc(C(=O)O)cc1 |
|  | 123 µL/min/1e6 cells |  |  | 0.0633 |  |  | O=C(CN1CCOCC1)Nc1ccc(-c2cccc3c(=O)cc(N4CCOCC4)oc23)cc1-c1ccccc1 |
| 0.0836 | 6.17 µL/min/1e6 cells | 0.05 | 14.1 µL/min/mg |  |  |  | Cc1ccc(S(=O)(=O)N2N=Cc3ccccc3B2O)cc1 |
| 0.17 | < 3 µL/min/1e6 cells | -0.4 | 9.77 µL/min/mg |  |  |  | CCCS(=O)(=O)N1N=Cc2cc(Cl)ccc2B1O |
| 0.0409 | 53.7 µL/min/1e6 cells |  | > 150 µL/min/mg |  |  | 1.3 µM (≈ 0.665 µg/mL) | Cc1ccc(CO)cc1N(c1ccnc(Nc2cc(N3CCOCC3)cc(S(C)(=O)=O)c2)n1)C(C)C |
|  | 70 µL/min/1e6 cells | 4.05 |  | 0.0075 |  |  | Cc1ccc(C(NC(=O)c2ccccc2O)C(=O)Nc2c(C)cccc2C)s1 (stereo not drawn) |
| 0.0036 | 10 µL/min/1e6 cells | 2.3 |  |  | 5.5 µL/min/mg | 51.3 µM (≈ 26.9 µg/mL) | Cc1cc(OCCCS(C)(=O)=O)cc(C)c1-c1cccc(COc2ccc3c(c2)OC[C@H]3CC(=O)O)c1 |
| 0.324 | 19.5 µL/min/1e6 cells | 1.55 |  |  | 8.91 µL/min/mg |  | COc1ccc2nc(C)cc(N3CC(CNC(=O)C4CC4)OC3=O)c2c1 (stereo not drawn) |
| 0.324 | 6 µL/min/1e6 cells | 1.64 | < 3 µL/min/mg |  |  |  | C[C@@H](C(=O)NCCN1CCCC1)c1ccc(OS(=O)(=O)C(F)(F)F)cc1 |
|  | 10 µL/min/1e6 cells |  | 9 µL/min/mg | 0.16 |  |  | Cc1nn(-c2ccccc2)c(NS(=O)(=O)c2cccc(CN3CCOCC3)c2)c1C(=O)N[C@@H](C)C(C)(C)C |
|  | 38 µL/min/1e6 cells |  |  | 0.624 | 41 µL/min/mg |  | CC(C(=O)OC1CC[N+](C)(C)CC1)(c1ccccc1)N1CCC(F)(F)CC1 (stereo not drawn) |
|  | 16 µL/min/1e6 cells |  |  | 0.454 | < 3 µL/min/mg |  | CN(C)C(C)(C(=O)OC1CC[N+](C)(C)CC1)c1ccccc1 (stereo not drawn) |
| 0.117 | < 3 µL/min/1e6 cells | 1.08 |  |  | < 3 µL/min/mg |  | Cc1ccc(S(=O)(=O)Nc2c(C(=O)N[C@@H](C)C(C)(C)C)c(C)nn2C2CCN(CC(F)(F)F)CC2)cc1 |
| 0.0111 | 23.4 µL/min/1e6 cells | 3.5 | 24.6 µL/min/mg |  |  | 10.7 µM (≈ 4.63 µg/mL) | COc1ccc2c(Oc3ccc(CC(=O)Nc4cn(C)nc4C)c(OC)c3)ccnc2c1 |
| 0.002 | 13.8 µL/min/1e6 cells | 3.22 |  |  | < 3 µL/min/mg |  | O=C(O)CCc1ccc(OCc2cc(Cl)ccc2-c2ccccc2)cc1 |

| fraction unbound at 5 h [1] | hepatocyte CLint [2] | logD [3] | microsomal CLint ([4]; liver microsomes) | fraction unbound at 5 h [5] | microsomal CLint ([4]; microsomes) | solubility thermodynamic [6] | Structure (SMILES) |
| --- | --- | --- | --- | --- | --- | --- | --- |
| 0.371 | 20 µL/min/1e6 cells | 1.41 |  |  | < 3 µL/min/mg | 63.1 µM (≈ 21.9 µg/mL) | CC(C)(C)NS(=O)(=O)c1cncc(-c2ccc3nc(N)nn3c2)c1 |
| 0.0477 | > 150 µL/min/1e6 cells | 3.17 |  |  | 46.8 µL/min/mg |  | Nc1ncnc2c1c(COc1cccc(Cl)c1)nn2C1CCOCC1 |
|  | > 150 µL/min/1e6 cells |  | 64 µL/min/mg | 0.126 |  |  | O=C(Nc1nc2ccccc2[nH]1)c1ccccc1 |
| 0.349 | 55 µL/min/1e6 cells | 1.55 |  |  | 12.6 µL/min/mg |  | CCCNC(=O)CSc1ccc(S(=O)(=O)N2CCCC2)cn1 |
| 0.0287 | > 150 µL/min/1e6 cells | 3.44 | 19.1 µL/min/mg |  |  |  | O=C(Nc1cc(-c2ccncc2)c[nH]c1=O)[C@H](Cc1ccccc1)NC1(c2ccccn2)CC1 |
| 0.154 | 14.4 µL/min/1e6 cells | 0.9 |  |  | 21.4 µL/min/mg |  | Nc1ncnc2c1ncn2[C@@H]1O[C@H](CSCCCNC(=O)NCc2ccccc2)[C@@H](O)[C@H]1O |
| 0.0111 | 9.55 µL/min/1e6 cells | 0.93 |  | 0.016 |  |  | Cc1cn([C@H]2CCCN([C@@H](CC(C)C)c3ccc(C(=O)O)c(Oc4cccc(Cl)c4)c3)C2)c(=O)[nH]c1=O |
| 0.0024 | > 150 µL/min/1e6 cells | 4.3 |  |  | > 150 µL/min/mg |  | COc1cc(O)c(C(CC(=O)N2CC(C)CC(C)C2)c2ccc3c(c2)OCO3)c(OC)c1 (stereo not drawn) |
| 0.465 | 12.9 µL/min/1e6 cells | -0.82 | 3.98 µL/min/mg |  |  |  | CC(=O)Nc1nc(CCc2ccc(NC(=N)N)cc2)cs1 |
| 0.0477 | < 3 µL/min/1e6 cells | 0.4 | 4.17 µL/min/mg |  |  |  | C[C@@H](NC(=O)C1CCNCC1)c1ccc(Nc2ncc3cc(-c4ccncc4)ccc3n2)cc1 |
| 0.163 | 19.1 µL/min/1e6 cells | 1.19 | < 3 µL/min/mg |  |  |  | Clc1ccc2ncc(-c3cccc(NC4CNC4)n3)n2c1 |
| 0.0477 | 20 µL/min/1e6 cells | 3.7 |  | 0.0293 |  |  | CCOc1ccc(-n2c([C@@H](C)N(Cc3cccnc3)C(=O)Cc3ccc(OC(F)(F)F)cc3)nc3ncccc3c2=O)cc1 |
| 0.009 | 14.8 µL/min/1e6 cells | 4.3 | 9.12 µL/min/mg |  |  |  | Clc1cccc(-c2cnc3ccc(NC4CCOCC4)nn23)c1 |
| 0.0099 | 7 µL/min/1e6 cells | 0.85 |  |  | 66 µL/min/mg |  | O=C(O)c1cncc(-c2ccc(Cl)c(C(=O)NCC34CC5CC(CC(C5)C3)C4)c2)c1 |
|  | > 150 µL/min/1e6 cells | 3.4 |  | 0.0488 |  |  | O=C(Nc1cccc(Cl)c1)c1ccccn1 |
|  | > 150 µL/min/1e6 cells |  |  | 0.0447 |  |  | COc1cc(NC(=O)c2ccccn2)ccc1Cl |
| 0.465 | 149 µL/min/1e6 cells | 1.38 |  |  | < 3 µL/min/mg | 355 µM (≈ 94.6 µg/mL) | O=C(Nc1ccc(F)cc1)c1ccc(Cl)[n+]([O-])c1 |
| 0.747 | < 3 µL/min/1e6 cells | -0.8 | 3.31 µL/min/mg |  |  |  | CC1N=C(N)N=C(N)N1c1ccc(Cl)cc1 (stereo not drawn) |
|  | 5.01 µL/min/1e6 cells |  |  | 0.5 |  |  | CCc1cc2c(cc1N1CCC(N3CCOCC3)CC1)C(C)(C)c1[nH]c3cc(C#N)ccc3c1C2=O [ALECTINIB] |
| 0.465 | < 3 µL/min/1e6 cells |  |  | 0.454 |  |  | COCC1=C(C(=O)O)N2C(=O)[C@@H](NC(=O)/C(=N\OC)c3csc(N)n3)[C@H]2SC1 [CEFPODOXIME] |
| 0.0136 | 137 µL/min/1e6 cells | 3.69 |  |  | > 150 µL/min/mg |  | COC(=O)[C@H](c1ccccc1Cl)N1CCc2sccc2C1 [CLOPIDOGREL] |
| 0.285 | 31 µL/min/1e6 cells | 1.87 |  | 0.126 |  | 141 µM (≈ 55.5 µg/mL) | C[C@@H]1C[C@H]2[C@@H]3CCC4=CC(=O)C=C[C@]4(C)[C@@]3(F)[C@@H](O)C[C@]2(C)[C@@]1(O)C(=O)CO [DEXAMETHASONE] |
| 0.194 | 4.79 µL/min/1e6 cells | 2.4 | 6.17 µL/min/mg |  |  |  | CS(=O)(=O)c1ccc(-c2cnc(N)c(-c3ccc(C(F)(F)F)nc3)c2)cc1 [MMV-048] |
| 0.651 | 26.9 µL/min/1e6 cells | 1.5 | 24.6 µL/min/mg |  |  |  | CCOc1ccc(NC(C)=O)cc1 [PHENACETIN] |
| 0.232 | 12 µL/min/1e6 cells | 1.17 |  |  | 5.5 µL/min/mg | 851 µM (≈ 275 µg/mL) | CNCc1ccc(-c2[nH]c3cc(F)cc4c3c2CCNC4=O)cc1 [RUCAPARIB] |
| 0.392 | < 3 µL/min/1e6 cells | 1.6 | 5.13 µL/min/mg |  |  |  | NC(=O)c1ccc(N(C(N)=O)c2c(F)cccc2F)nc1-c1ccc(F)cc1F [VX-702] |
